Data taken from patent US20150064221A1, “COMPOUNDS HAVING IMMUNOMUDULATOR ACTIVITY” (priority 2012, published 2015).
Entries after “also recorded” stand apart in the source; their conditions may differ.

Experiments:
[1] = test system: splenic DCs; test: LPS-induced maturation of dendritic cells in vivo; design: species or system mice; details: 0.5 mg/mouse 1 hour prior to LPS
Description: Mice were given VGX-1027 (0.5 mg/mouse) or a control, and then injected with LPS (25 μg/mouse) 1 hour later. At 3 hours post LPS administration, the mice were sacrificed, and (A) % of splenic DCs with CD86 and (B) MFI of CD86 from the CD86+ cells were measured.
To determine if this effect could be translated in vivo, mice were injected with LPS and the % of DCs that express CD86, which is a maturation marker, and the MR of CD86 on the positive cells were measured. The activation of DCs via CD86 expression, and not total cytokine levels, was measured in order to ascertain the direct affects of VGX-1027 on DCs. In vivo cytokine measurement could be confounded by other cytokine producing cells, such as macrophages. The mice were injected with LPS or LPS+VGX-1027 (VGX-1027 was given 1 hour prior to LPS administration) 3 hours post injection. The spleen from these mice were extracted and analyzed for DCs with CD86 expression. […] Moreover, the VGX1027-induced decrease in the percentage of cells that expressed CD86 and was associated with a decrease in the expression of CD86 per cell (FIG. 7b). Therefore, VGX-1027 inhibits LPS-induced production of Th17-promoting inflammatory cytokines by DCs in vitro and reduces LPS-induced maturation of DCs in vivo.

[2] = test system: spontaneous diabetes; test: Spontaneous diabetes in NOD mice; format: in vivo; details: i.p. 20 mg/kg 6 times a week, week 12 to 25
Description: (A) Euglycaemic female 12 week old NOD mice were treated intraperitoneally with either 20 mg/kg bw VGX-1027 or its vehicle six times a week from the 12th until the 25th week of age. An additional control group of mice was left untreated. Each group consisted of 16 mice. The data are representative of two independent experiments that were merged because of interstudies variability lower than 10%. Statistical analysis was performed by Logrank (Mantel-Cox). (B) Plasma glucose levels in control CBA/H mice receiving STZ (40 mg/kg/day, for 5 consecutive days) in conjunction with 12 daily intreperitoneum injections of vehicle (STZ), or in mice treated with STZ and VGX-1027 given as a continuous 12-day treatment. 100 mg/kg bw of VGX-1027, administered orally from day −1 to day +10. Results from a representative experiment are presented as mean±SD for seven to eight mice per group. *p<0.05 refers to treatment with MLD-STZ.

[3] = test system: DNBS-induced colitis; test: DNB/DNBS-induced colitis; format: in vivo, mice
Description: Mice were injected with DNBS into the rectum and administered VGX-1027 an hour later; 4 days after, the mice were sacrificed, and the colons were isolated and analyzed. Variation in total body weight (A), stool consistency (B), macroscopic score (C), necrotic areas 9D), colon weight (E), and amount of cytokines in colon homogenate were determined Macroscopic score was determined by the following criteria: 0=no damage; 1=localized hyperaemia and/or oedema; 2=linear ulcer<half of the width of the colon; 3=linear ulcer>half the width of the colon; 4=circular ulcer<1 cm; 5=circular ulcer between 1 and 2 cm; 6=circular ulcer>2 cm.
Within 5 days after challenge with dinitrobenzene sulfonic acid (DNB), mice develop colitis. The disease severity is evaluated based on a macroscopic score. The vehicle-treated control mice and untreated mice developed colitis with a predictable and progressive increase in inflammation and body weight loss.
The colons of the control mice and of the VGX-1027 treated mice were removed, sectioned, fixed, and stained with hematoxylin and eosin. […] The tissue myeloperoxidase activity is a well established marker to assess the inflammatory cell (mainly neutrophils) infiltration. […] We counted an average of 8.9±1.2 (means±SD) cells/high power field of DNB-induced animals, whereas there were only 3.37±0.8 cells/high-power field in DNB-induced animals pretreated with VGX-1027 (p<0.0001).
DNBS challenge of mice induced clinical features of colitis including weight loss, diarrhea, intestinal damage, and necrotic regions (FIG. 11a-d). […] An increase in the weight of the colon is an indirect measure of increased thickness of the walls due to inflammation.

[4] = test system: oxazolone-induced hypersensitivity; test: Oxazolone-induced dermatitis; format: in vivo, mice
[5] = test system: LPS-induced lethality; test: LPS-induced lethality; format: in vivo, mice
Description: VGX-1027 was administered intraperitoneally (A) or orally (p.o.) (B), and its effect on cumulative rate of lethality induced by LPS was evaluated. Data from 2 to 3 independent experiments are shown. Statistical analysis was performed by logrank (Mantel-Cox). *p<0.05 was taken as significant. Each group is compared to the vehicle-treated group.
As expected, most of the control mice either untreated or that received the vehicle of VGX-1027 succumbed to LPS-challenge within 3 days. […] In contrast, the treatment with VGX-1027 given either orally or intraperitoneally administration protect the mice from the lethal effects of LPS in a dose-dependent fashion. When given orally, VGX-1027 was effective at the dose of […] and […] both at 1.5 and 3 mg/mouse.
Lipopolysaccharide (LPS) is the most studied of all TLR agonists because it induces both local and systemic inflammation, and responses to LPS mimic many of the features of tissue injury observed during infections with Gram-negative bacteria. Injection of LPS into mice triggers production of inflammatory cytokines and symptoms that are indistinguishable from those of septic shock.

[6] = test system: splenic mononuclear cells (SMNC); test: Ex vivo proliferation and cytokine synthesis of SMNC from treated mice; format: cell-based
Description: These experiments were carried out to explore if intraperitoneal (i.p.) or oral administration (p.o.) in mice with VGX-1027 could influence the proliferative response of SMNC and the production of IL-1β, IL-10, TNF-α, IFN-γ and MIF from isolated PM and SMNC. PM and SMNC isolated from mice treated in vivo with VGX-1027 for 7 consecutive days intraperitoneally (0.5 mg/mouse), or orally (2.5 mg/mouse), or isolated from control animals that received VGX-1027 vehicle (Na2HPO4/H2O), or were without any treatment. 24 h after the last VGX-1027 treatment, PM and SMNC were collected for further in vitro stimulation and analysis.

[7] = DNBS, treatment from 1 hour after DNBS
[8] = elicitation phase: one hour after second oxazolone exposure
[9] = treated during or before the sensitization phase

`O=C(O)CC1CC(c2ccccc2)=NO1` (stereo not shown) [VGX-1027, 3-phenyl-4,5-dihydro-5-isoxazoleacetic acid] was tested, and the “expression of CD86 per cell (MFI)” value [1] was “decrease”, the “overall percentage of DCs in the spleen” value [1] was “without affecting” and the “% of DCs that expressed CD86” value ([1]; 3 hours post LPS) was “reduced this percentage”. For the same molecule, the “mice developing TID” value ([2]; by 25 weeks) was 31.3%, the “tolerability of prolonged treatment” value [2] was “well tolerated” and the “increase in colon weight” value ([3]; DNB colitis) was “significantly lower”. The weight loss ([3]; DNB colitis) was “significant reduction”, the “tissue damage (histology)” value ([3]; DNB colitis, treated before induction) was “significantly reduced” and the “progression of inflammatory colitis” value ([3]; DNB, p<0.001) was “significantly attenuated”. For the same molecule, the neutrophils infiltrating ([3]; DNB-induced animals pretreated, means±SD) was 3.37±0.8 cells/high-power field, the “IL-18 in colon homogenates” value [3, 7] was “decreased amounts” and the “TNF-α in colon homogenates” value [3, 7] was “decreased amounts”. For the same molecule, the colon weight [3, 7] was “decreased”, the “features of colitis / degree of protection” value ([3]; DNBS, treatment from 1 hour after until 4 days after DNBS) was “markedly improved; also recorded: comparable to that afforded by 1 mg/kg of dexamethasone” and the “inflammatory cell infiltration (myeloperoxidase activity)” value ([3]; colon tissue, 5 days after induction, p<0.0001) was “significant reduction”. The ear thickness [4, 8] was “significant decrease”, the ear weight [4, 8] was “not in weight” and the ear thickness [4, 9] was “significantly suppressed”. The ear weight [4, 9] was “significantly suppressed”, the “protection from LPS lethality” value ([5]; i.p., between 0.25 and 0.5 mg/mouse) was “dose-dependent protection” and the survival ([5]; lethal dose of LPS (1 mg/mice), i.p. or oral) was “increased the survival”. The “protection from LPS lethality” value ([5]; oral, 2.5 mg/mouse) was “effective”, the “protection from LPS lethality” value ([5]; oral, 1.5 and 3 mg/mouse) was “dosed out” and the LPS-induced lethality ([5]; prophylactic regime (−24 and −1 hour prior to LPS), oral and i.p.) was “significantly reducing”. The LPS-induced lethality ([5]; therapeutic administration) was “powerfully counteracts”, the IFN-γ production [6] was “normal capacity” and the “IL-1 β production” value [6] was “normal capacity”. The IL-10 production [6] was “normal capacity”, the MIF expression [6] was “normal expression pattern” and the TNF-α production [6] was “normal capacity”. For the same molecule, the capacity to proliferate ([6]; mice treated 7 days) was “normal capacity”.
